Test results from patent US7332279B2 (Glycozym APS, priority 1999, dated 2008).

Molecular target: T1, β4Gal-T3 (Homo sapiens, UniProt O60512)
T1 construct: The kinetic properties were determined with partially purified, secreted forms of the enzymes; made in house; host or cells: baculovirus; insect cells (Sf9 / High Five)
Assay: Galactosyltransferase assay, recombinant β4Gal-T3, saccharide acceptors
Type: biochemical
Method: An expression construct (pAcGP67-β3Gal-T5-sol) designed to exclude the hydrophobic transmembrane segment and to encode amino acid residues 25-310, was prepared by PCR using P1 genomic DNA, and the primer pair EBER1300 sol (5′-[…]) (SEQ ID NO:3) and EBER1310 (5′-[…]) (SEQ ID NO:4) (FIG. 1), which included BamHI restriction sites. PCR product was cloned into the BamHI site of pAcGP67B (Pharmingen). An expression construct (pVL-β3Gal-T5-full) designed to encode the full coding sequence (from first ATG, FIG. 1) was prepared by PCR with P1 genomic DNA using the primer pair EBER1309 (5′-[…]) (SEQ ID NO:5) and EBER1310. This PCR product was cloned into the BamHI site of pVL1193 (Pharmingen). Both soluble and full length constructs were fully sequenced to confirm fidelity. Plasmids pAcGP67-β3GalT5-sol and pVL-β3Gal-T5-full were co-transfected with Baculo-Gold™ DNA (Pharmingen) as described previously (Bennett, E. P., Hassan, H. and Clausen, H. cDNA cloning and expression of a novel human UDP-N-acetyl-alpha-D-galactosamine. Polypeptide N-acetyl-galactosaminyl-transferase, GalNAc-T3. J. Biol. Chem. 271:17006-17012, 1996). Recombinant Baculo-virus were obtained after two successive amplifications in Sf9 cells grown in serum-containing medium, and titers of virus were estimated by titration in 24-well plates with monitoring of enzyme activities. […] Polypeptide N-acetyl-galactosaminyl-transferase, GalNAc-T3. J. Biol. Chem. 271:17006-17012, 1996). For large scale expression amplified virus was used to infect High Five™ cells grown in serum-free media (Invitrogen) in upright roller bottles shaking at 140 rpm and 27° C.
The kinetic properties were determined with partially purified, secreted forms of the enzymes. Semipurification of enzymes from serum-free medium of infected High-Five™ cells was performed by sequential Amberlite, DEAE-Sephacel and 5-Sepharose chromatography as described previously (Wandall, H. H., Hassan, H., Mirgorodskaya, E., et al. Substrate specificities of three. members of the human UDP-N-acetyl-alpha-D-galactosamine:Polypeptide Nacetylgalactosaminyltransferase family, GalNAc-T1, -T2, and -T3. J. Biol. Chem. 272:23503-23514, 1997). Comparisons of enzymes were performed relatively to the activity obtained with βGlcNAc-Bz1 (Tables II and III). Full length enzymes were assayed with 1% Triton CF54 homogenates of washed cells. Enzyme assays were performed in 50 μl total reaction mixtures containing 25 mM Cacodylate (pH 7.5), 10 mM MnCl2, 0.25% Triton X-100, 100 μM UDP-[^14C]-Gal (2,600 cpm/nmol) (Amersham), and varying concentrations of acceptor substrates (Sigma) (see Table I for structures). Reaction products were quantified by Dowex-1 chromatography. […] The transfer of Gal was evaluated after acid precipitation by filtration through Whatman GF/C glass fibre filters. […] Assays with glycolipid acceptors were conducted as previously described (Holmes, E. H. Characterization and membrane organization of beta 1-3- and beta 1-4-galactosyltransferases from human colonic adenocarcinoma cell lines Cob 205 and SW403: basis for preferential synthesis of type 1 chain lacto-series carbohydrate structures. Arch Biochem Biophys 270:630-646, 1989) in reaction mixtures containing 2.5 μmol HEPES buffer, pH 7.2, μmol MnCl2, 100 μg taurodeoxycholate or Triton CF-54, 20 μg acceptor glycolipid, 15 nmol UDP-[^14C]-galactose (13,000 cpm/nmol) and enzyme in a total volume of 100 μl. Conditions for incubation and product isolation were as previously described (Id.).

T1 sequence (O60512 32-393 limits assumed): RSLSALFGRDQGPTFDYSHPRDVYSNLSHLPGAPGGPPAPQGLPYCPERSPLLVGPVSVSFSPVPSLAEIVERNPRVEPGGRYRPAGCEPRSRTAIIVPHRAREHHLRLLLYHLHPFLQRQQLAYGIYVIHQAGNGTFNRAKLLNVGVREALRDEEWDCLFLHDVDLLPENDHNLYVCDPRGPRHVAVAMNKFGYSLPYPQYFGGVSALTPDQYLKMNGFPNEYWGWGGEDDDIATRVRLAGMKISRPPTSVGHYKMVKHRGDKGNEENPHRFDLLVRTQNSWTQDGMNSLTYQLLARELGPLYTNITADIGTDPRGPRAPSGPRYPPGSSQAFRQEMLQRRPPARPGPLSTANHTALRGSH

Compound	β4Gal-T3 activity with βGlcNAc-Bzl (β-D-GlcNAc-Bzl at 2 mM) [nmol/min]	β4Gal-T3 activity, acceptor 0.2 mM (0.2 mM) [nmol/min]	β4Gal-T3 ratio to value with βGlcNAc-Bzl, acceptor 0.2 mM (0.2 mM)	β4Gal-T3 activity, acceptor 2 mM (2 mM) [nmol/min]	β4Gal-T3 ratio to value with βGlcNAc-Bzl, acceptor 2 mM (2 mM)
CC(=O)N[C@H]1[C@H](OCc2ccccc2)O[C@H](CO)[C@@H](O)[C@@H]1O [β-D-GlcNAc-Bzl]	0.03	–	–	–	–
CC(=O)NC1C(OC2C(O)C(CO)OC(Oc3ccc([N+](=O)[O-])cc3)C2NC(C)=O)OC(CO)C(O)C1O [β-D-GlcNAc-(1–3)-α-D-GalNAc-p-Nph]	–	0.1	(0.3)	0.03	(1.0)
